This note sets out measurements from US20090130064A1, “DIFFERENTIATION OF STEM CELLS AND STABILIZATION OF PHENOTYPICAL PROPERTIES OF PRIMARY CELLS” (priority 2004, published 2009).

One data set deals with GSTA. In words: GSTA iso-enzyme activity in cultured rat hepatocytes. It counts as cell-based. As to conditions: TSA treatment. From the text:
(§1) Hepatocytes were isolated from male Sprague-Dawley rats by a two-step collagenase perfusion as described (De Smet et al. In ‘Methods in Molecular Biology, Vol. 107: Cytochrome P450 Protocols’, Philips IR and Shephard E A, eds., p.p 295-301, Humana Press, Totowa, 1998). Hepatocytes were cultivated in monolayer cultures with Willam's E Medium (WE) for 7 days. […] The maintenance of differentiation characteristics was studied after 2, 4, and 7 days (D2, D4, D7) of culture.
(§2) In order to investigate Phase II biotransformation, total cytosolic glutathione S-transferase (GST) activity and activities of individual GSTA, GSTP, and GSTM iso-enzymes were measured using standard techniques known in the art. (i.e., measuring conjugation of reduced glutathione with 1-chloro-2,4-dinitrobenzene for total GST; measuring conjugation of reduced glutathione with 7-chloro-4-nitrobenzo-2-oxa-1,3-diazole for GSTA activity; measuring conjugation of reduced glutathione with ethacrynic acid for GSTP activity; and measuring conjugation of reduced glutathione with 1,2-dichloro-4-nitrobenzene for GSTM activity).

The test system of another data set is CYP 2B1/2. In words: CYP 2B1/2 activity (penthoxyresorufin conversion) in cultured rat hepatocytes. It counts as cell-based.
Text: as §1
Phase I biotransformation was assessed by means of activity measurements of the microsomal cytochrome P450 (CYP) 1A1 and 2B1/2 iso-enzymes, using standard techniques known in the art (i.e., measuring conversion of ethoxyresorufin into hydroxyresorufin for CYP 1A1 and conversion of penthoxyresorufin to hydroxyresorufin for CYP 2B1/2) (Burke et al. Drug Metab Dispos 2:583-588, 1974). Microsomes were prepared from freshly isolated and hepatocytes cultured for 7 days according to Hales et al. (Biochem Pharmacol 26:555-556, 1977).

In another data set the test system is hMSC. Description: LDH-leakage cytotoxicity in hMSC. It counts as cell-based, human. The method, then:
Low-density hMSC (CD45^−, Thy^+) were cultivated at 21.5 10^3 cells cm^2 on 1 mg/ml collagen gel type I matrix in the presence of liver-specific (LSP) cytokines, added either as a cocktail [basal medium supplemented with 10 ng/ml FGF-4 (fibroblast growth factor type 4), 20 ng/ml HGF (hepatic growth factor) (all from R&D), 1×ITS (insulin, transferrin, selenious acid) and 0.05 μM Dex (dexamethasone) (all from Sigma)] or sequentially [basal medium supplemented with 10 ng/ml FGF-4, following basal media supplemented with 20 ng/ml HGF (R&D) and finally basal medium supplemented with 20 ng/ml HGF, 1×ITS and 0.05 μM Dex]. Basal medium consisted of 60% (v/v) DMEM-LG/40% (v/v) MCDB-201 supplemented with 1 mg/ml LA-BSA, 100 IU/ml penicillin, 100 μg/ml streptomycin, 0.1 mM L-ascorbic acid, 4 μg/ml nicotinamide, 27.3 mg/l sodium-pyruvate and 1.623 mM glutamin (all from Sigma). The media were changed every three days.
The assay was done with an LDH-kit (Merck 1 14869.0001; Ecoline 1S) according to the manufacturer's recommendations.

The next data set concerns GSTM. Description: GSTM iso-enzyme activity in cultured rat hepatocytes. It counts as cell-based. As to conditions: TSA started at 4 h; day 4 and 7.
Text: as §1, §2

The next data set concerns histone H4. In words: Acetylated histone H4 by immunocytochemistry in rat hepatocytes. It counts as cell-based. As to conditions: 1 μM TSA. The method, then:
In all conditions, the hepatocytes were cultivated as a monolayer configuration, and samples were taken at days 1, 4 and 7 (D1, D4, D7) of the cultivation time.
Hepatocytes were fixed with cold ethanol, peremeabilised with Triton X-100 (Sigma) and blocked with non-fatty milk. Following incubation with appropriate concentrations of primary and secondary antibodies (FITC or TRITC labeled), samples were mounted with DAPI-containing Vectashield (Vector Laboratories). Detection was performed by fluorescence microscopy (Leica DMR/XA).

On to `CC(C=CC(=O)NO)=CC(C)C(=O)c1ccc(N(C)C)cc1` (centres unmarked) [TSA], for which the “activity of GSTA iso-enzyme” value with GSTA is recorded as “substantially unaffected”. Further, the “activity of CYP 2B1/2 versus EtOH-treated controls” value in the data set with CYP 2B1/2 (1 μM TSA starting at 0 h or 4 h, day 4 and 7) is on record as “significantly higher”. In the data set on CYP 2B1/2 (7-day conventionally cultured adult rat hepatocytes, 1 μm TSA), the “CYP 2B1 Activity” value is 4.1 ± 0.7 pmol resorufin/minute mg microsomal protein. Also, the “cytotoxicity (LDH leakage)” value in the data set on hMSC (1 μM TSA) is on record as “did not cause immediate cell death”; in the data set with hMSC (5 and 25 μM TSA from day 0 until addition of HGF) it was “immediate cell death”. In the data set on hMSC (1 μM TSA, from day 13 (cocktail) and day 3 (sequential) on), the “cell lethality (LDH leakage)” value is on record as “significantly downregulated cell lethality”. Moreover, the “activity of GSTM iso-enzyme” value in the data set with GSTM is “stimulated”. Moreover, the “acetylation of histone H4” value with histone H4 was “hyperacetylation”.
